Reference: article PMC9532951, “Identification and characterization of a novel SNAT2 (SLC38A2) inhibitor reveals synergy with glucose transport inhibition in cancer cells” (Frontiers in Pharmacology, 2022)
Where “and” joins values, the source holds several entries; their conditions need not be identical. Identical values can stand only once.

What was measured:
[1] = tested on: SNAT2; assay: Radiolabelled proline uptake in amino acid depleted SKOV3 cells; format: cell-based, human; settings: for inhibition of proline uptake: 10 mM
Description: (§1) Functional characterisation of plasma membrane transporters in human cancer cells was determined at 37°C using an array of radiolabelled amino acid substrates. Modified Hanks HEPES-buffered salts solution (mHBSS; 137 mM NaCl; 5.4 mM KCl; 2.7 mM K2HPO4; 1 mM CaCl2; 0.5 mM MgCl2; 0.44 mM KH2PO4; 0.4 mM MgSO4; 5 mM D-glucose; 5 mM HEPES; pH 7.4) was used to wash and incubate cells where sodium dependent transport was measured, while N-methyl-D-glucamine (NMDG) and potassium salts substituted sodium in NMDG mHBSS to measure sodium independent uptake. For the assay, cells were seeded in 35 mm dishes and, once confluent, were washed thrice with warm mHBSS solution and incubated with mHBSS containing an 100 µM amino acid at a final specific activity of ≥2000 cpm/nmol (U-[^14C]amino acids were from PerkinElmer). After 6 min, cells were washed thrice with ice-cold mHBSS, lysed with 500 µl of 0.1 M HCl, detached with a cell scraper and triturated. A 400 µl aliquot was used for scintillation counting, while the remainder was saved for protein mass quantification by Bradford assay. Transport rates were normalised to the protein content of the culture dish.
(§2) IC50 were calculated using equation y=ymax(1−x/x+IC50)

[2] = target: T1, SNAT1 (Homo sapiens, UniProt Q9H2H9); assay: Alanine uptake in HCC1806 D126 (ASCT2ko, SNAT2ko) cells; format: cell-based
T1 construct: SNAT1 remained active as indicated by the Na^+-dependence of alanine uptake; endogenous in cells; host or cells: HCC1806 clone D126 (ASCT2ko, SNAT2ko), amino acid depleted for 24 h
T1 sequence (Q9H2H9 1-487): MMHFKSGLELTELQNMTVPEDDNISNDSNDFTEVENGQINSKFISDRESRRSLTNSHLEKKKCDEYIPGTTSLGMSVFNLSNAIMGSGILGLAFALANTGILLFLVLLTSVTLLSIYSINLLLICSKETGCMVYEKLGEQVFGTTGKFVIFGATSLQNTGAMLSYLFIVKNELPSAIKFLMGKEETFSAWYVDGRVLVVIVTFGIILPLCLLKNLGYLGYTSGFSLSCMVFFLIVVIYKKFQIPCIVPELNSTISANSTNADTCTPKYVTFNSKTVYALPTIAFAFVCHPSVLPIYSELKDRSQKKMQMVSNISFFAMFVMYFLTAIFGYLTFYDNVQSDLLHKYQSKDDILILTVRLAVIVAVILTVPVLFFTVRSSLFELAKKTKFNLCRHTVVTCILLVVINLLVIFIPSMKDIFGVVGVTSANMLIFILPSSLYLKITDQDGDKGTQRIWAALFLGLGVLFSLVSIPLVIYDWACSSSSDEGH
Description: To delete the SNAT2 (SLC38A2) gene in modified HCC1806 cells (clone C10 nullizygous for ASCT2 ([Broer et al., 2019])), the GeneArt CRISPR Nuclease Vector with OFP Reporter Kit (Invitrogen; A21174) was employed and complementary 19–20 bp long single-stranded oligonucleotides with overhangs were designed to produce a guide RNA (gRNA) for the Cas9 nuclease that would target exon 7 of the SNAT2 gene. Colonies were analysed by sequencing using the U6 primer included in the GeneArt CRISPR Nuclease Vector with OFP Reporter kit. Plasmids that contained the correct CRISPR nuclease construct were then used to transfect HCC1806 cells with Lipofectamine 2000 (Invitrogen). Prior to transfection, medium was replaced with 2 ml of fresh DMEM/F-12 (supplemented with 10% heat-inactivated FBS and 2 mM glutamine). Plasmid DNA (4 µg) and 10 µL of Lipofectamine 2000 were incubated separately for 5 min at room temperature in 500 µl of Opti-MEM (Invitrogen) before being combined and incubated for a further 30 min at room temperature. The DNA-Lipofectamine complex was then added to the cells in a dropwise manner and allowed to be absorbed over 6 h at 37°C, after which the medium was renewed with fresh DMEM/F-12. Cells were checked for red fluorescence using an EVOS FL cell imaging system (Thermo Fisher Scientific) 48–72 h post transfection. Subsequently, cells were detached using 0.25% Trypsin EDTA. After harvesting and washing thrice with PBS (pH 7.4), cells were resuspended in PBS (pH 7.4) supplemented with 5 mM glucose and 1% dialysed and heat inactivated FBS and passed through a 100 μm cell strainer. The cell filtrate was then pelleted once more and resuspended in the same buffer. Cells were sorted using an ARIA II FACS machine and individually dispensed into the wells of a 96-well plate. Nullizygous clones were identified using a series of assays including the FLIPR membrane potential assay, western blotting and sequencing.
as §1

[3] = tested on: SNAT1 and SNAT2; assay: FMP assay: inhibition of glutamine-induced membrane depolarisation in amino acid depleted HCC1806 cells; format: cell-based, human
Description: The FLIPR Membrane Potential Blue Explorer Kit (Molecular Devices) was used to characterise inhibitors and to optimise a high-throughput compound screen. Cells were seeded at approximately 60,000 cells/well on a 96-well plate and allowed to attach and grow overnight in a cell incubator. […] Cells were then washed once with mHBSS and incubated with 50 µl of the mHBSS-resuspended FMP assay dye and 50 µl of mHBSS (with or without inhibitors) and incubated at room temperature for 30 min. The plate was then placed in an EnSpire Multimode plate reader (PerkinElmer) and four sequential measurements of fluorescence were recorded as a baseline reference. Immediately after the baseline measurements were taken, 25 µl of 5 mM glutamine dissolved in mHBSS was injected into each well and the plate was shaken orbitally for 5 s before a series of consecutive fluorescence measurements were taken. The excitation wavelength was set to 530 nm and the emission was detected at 565 nm. The Δ fluorescent signal reported in the figures was taken 30 s after substrate addition. After the assay was complete, the liquid content of the plate was carefully removed, and the cell monolayer inspected to ensure it remained intact throughout the course of the assay.
as §2

[4] = HCC1806, second column group headed UNINDUCED (c11-c19), t=-30 s, glutamine introduced at t=0, replicates 1-3
[5] = HCC1806 UNINDUCED (c1-c9), t=0 s
[6] = HCC1806 UNINDUCED (c1-c9), t=15 s
[7] = HCC1806 UNINDUCED (c1-c9), t=30 s
[8] = HCC1806 UNINDUCED (c1-c9), t=45 s
[9] = HCC1806 UNINDUCED (c1-c9), t=60 s
[10] = HCC1806 UNINDUCED (c1-c9), t=75 s
[11] = HCC1806 UNINDUCED (c1-c9), t=90 s
[12] = HCC1806 UNINDUCED (c1-c9), t=105 s
[13] = HCC1806 UNINDUCED (c1-c9), t=120 s
[14] = HCC1806 UNINDUCED (c1-c9), t=135 s
[15] = HCC1806 UNINDUCED (c1-c9), t=-15 s
[16] = HCC1806 UNINDUCED (c1-c9), t=-30 s, glutamine introduced at t=0, replicates 1-3
[17] = second group headed UNINDUCED (c11-c19), t=0 s
[18] = second group headed UNINDUCED (c11-c19), t=15 s
[19] = second group headed UNINDUCED (c11-c19), t=30 s
[20] = second group headed UNINDUCED (c11-c19), t=45 s
[21] = second group headed UNINDUCED (c11-c19), t=60 s
[22] = second group headed UNINDUCED (c11-c19), t=75 s
[23] = second group headed UNINDUCED (c11-c19), t=90 s
[24] = second group headed UNINDUCED (c11-c19), t=105 s
[25] = second group headed UNINDUCED (c11-c19), t=120 s
[26] = second group headed UNINDUCED (c11-c19), t=135 s
[27] = second group headed UNINDUCED (c11-c19), t=-15 s

Row | Compound | FMP fluorescence reading [3, 4] | FMP fluorescence reading [3, 5] | FMP fluorescence reading [3, 6] | FMP fluorescence reading [3, 7] | FMP fluorescence reading [3, 8] | FMP fluorescence reading [3, 9] | FMP fluorescence reading [3, 10] | FMP fluorescence reading [3, 11] | FMP fluorescence reading [3, 12] | FMP fluorescence reading [3, 13] | FMP fluorescence reading [3, 14] | FMP fluorescence reading [3, 15] | FMP fluorescence reading [3, 16] | FMP fluorescence reading [3, 17] | FMP fluorescence reading [3, 18] | FMP fluorescence reading [3, 19] | FMP fluorescence reading [3, 20] | FMP fluorescence reading [3, 21] | FMP fluorescence reading [3, 22] | FMP fluorescence reading [3, 23] | also measured
1 | C[N+](C)(C)CC(=O)O [Betaine, betaine] | – | – | – | – | – | – | – | – | – | – | – | – | – | – | – | – | – | – | – | – | inhibition of proline uptake ([1]; 100 µM proline, Figure 4A (24 h starvation)): 30%; inhibition of proline uptake ([1]; Figure 4D (15 h starvation)): 60%; Proline uptake (nmol / mg protein x 6 min) ([1]; Figure 4A, 10mM, replicates 1-3): 14.3516 nmol / mg protein x 6 min and 14.2805 nmol / mg protein x 6 min and 13.5695 nmol / mg protein x 6 min; Proline uptake (nmol / mg protein x 6 min) ([1]; Figure 5B, reference inhibitors, replicates): 7.636 nmol / mg protein x 6 min and 7.165 nmol / mg protein x 6 min and 7.435 nmol / mg protein x 6 min and 7.421 nmol / mg protein x 6 min; Alanine uptake (nmol / mg protein x 6 min) ([2]; Figure 4B, 10mM, replicates 1-3): 27.8319 nmol / mg protein x 6 min and 27.8658 nmol / mg protein x 6 min and 25.4928 nmol / mg protein x 6 min; inhibition of alanine uptake ([2]; HCC1806 D126, Figure 4B, betaine and MeAIB 10 mM): not inhibited
2 | N[C@@H](CCC(=O)NO)C(=O)O [GHX, L-glutamic acid γ-monohydroxamate] | 80140 and 84104 and 92453 | 95009 and 106958 and 105072 | 92832 and 105585 and 105488 | 92285 and 105041 and 105362 | 92217 and 104713 and 105477 | 92501 and 104852 and 105149 | 92072 and 104235 and 104746 | 91505 and 104029 and 104931 | 91498 and 103606 and 105160 | 91509 and 103340 and 104992 | 91754 and 103170 and 104515 | 94947 and 106966 and 104913 | 94749 and 106497 and 104978 | 79859 and 84357 and 91947 | 80630 and 83515 and 91899 | 79854 and 83032 and 91748 | 79700 and 82661 and 90895 | 79052 and 82273 and 90365 | 78466 and 81641 and 89825 | 78374 and 80769 and 89707 | Mean (delta) fluorescence signal (%) ([3]; GHX concentration 0.005): 92.4453%; Mean (delta) fluorescence signal (%) ([3]; GHX concentration 0.05): 88.1978%; Mean (delta) fluorescence signal (%) ([3]; GHX concentration 0.1): 81.9185%; Mean (delta) fluorescence signal (%) ([3]; GHX concentration 0.2): 62.0593%; Mean (delta) fluorescence signal (%) ([3]; GHX concentration 0.5): 45.7050%; Mean (delta) fluorescence signal (%) ([3]; GHX concentration 1): 28.4974%; Mean (delta) fluorescence signal (%) ([3]; GHX concentration 3): 5.9801%; IC50 ([3]; glutamine induced depolarisation, HCC1806 AA- (24h), n = 3): 330 ± 160 µM; FMP fluorescence reading [3, 24]: 77755 and 80422 and 88694; FMP fluorescence reading [3, 25]: 77065 and 79988 and 88225; FMP fluorescence reading [3, 26]: 76289 and 79358 and 87841; FMP fluorescence reading [3, 27]: 80373 and 84318 and 91914
3 | NC(=O)CC[C@H](N)C(=O)O [Glutamine, glutamine] | 48604 and 53579 and 57451 | 80152 and 93008 and 95175 | 81192 and 94874 and 97430 | 81634 and 95549 and 97622 | 82112 and 96387 and 97827 | 82774 and 96256 and 98257 | 83212 and 96832 and 98303 | 83103 and 97466 and 98281 | 83167 and 97358 and 97714 | 83214 and 97405 and 97828 | 83426 and 97359 and 98137 | 80647 and 93663 and 95145 | 79899 and 92924 and 94884 | 48277 and 53613 and 57279 | 87410 and 95992 and 106048 | 92514 and 100953 and 110310 | 96611 and 104700 and 113605 | 98488 and 108054 and 116646 | 100460 and 110105 and 118023 | 101322 and 111642 and 119920 | FMP fluorescence reading [3, 24]: 102745 and 112818 and 120694; FMP fluorescence reading [3, 25]: 102428 and 112661 and 120909; FMP fluorescence reading [3, 26]: 102525 and 112308 and 120142; FMP fluorescence reading [3, 27]: 48090 and 53580 and 57674
